Experiments:
Conditions in all cases: 48 h
SEM cells [1] = experiment: AUC of viability dose-response curve (% viability x log10 dose units); higher = less sensitive
Outline: (§1)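 Viability of medium-adapted leukemia cells was measured by CellTiter-Glo One luminescence after 48 h at 37°C with library compounds in DMSO. Doses were 11 threefold steps from 47 μM to 0.79 nM, in 1536-well plates at 500 or 1000 cells/well. Signals were normalised per plate to DMSO and cell-free wells and fitted with a four-parameter log-logistic model on log10 dose. Area under the curve was integrated by trapezoidal rule, with curves exceeding full viability scaled and failed quality-control curves removed.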

P12-Ichikawa [2] = experiment: as above
Outline: as §1

NOMO1 [3] = experiment: as above
Outline: as §1

SEM cells [4] = experiment: cell viability relative to DMSO control; higher = less cytotoxic
Outline: (§2)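 In 1536-well plates, 5 μl of leukemia cells were seeded per well: 500 cells/well for NOMO1 or SEM and 1000 cells/well for P12-Ichikawa. Each line had first been adapted for at least four passages in each medium. Library compounds in DMSO were pin-dosed at 11 threefold concentrations between 47 μM and 0.79 nM, and CellTiter-Glo One luminescence was read after 48 h at 37°C. Viability is a per-plate percentage relative to DMSO wells, with cell-free wells as background.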

P12-Ichikawa [5] = experiment: as above
Outline: as §2

NOMO1 [6] = experiment: as above
Outline: as §2

Cc1cc(O)c2c(c1)C(=O)c1cc(O)cc(O)c1C2=O
AUC of viability dose-response curve
Conditions | NOMO1 [3] | P12-Ichikawa [2] | SEM cells [1]
HPLM + 10% dialyzed FBS | 462 | 467 | 457
RPMI 5 mM glucose + 10% FBS | 437 | 468 | 470
RPMI 5 mM glucose + 10% dialyzed FBS | 454 | 449 | 469

cell viability [%]
Conditions | NOMO1 [6] | P12-Ichikawa [5] | SEM cells [4]
HPLM + 10% dialyzed FBS, 0.000781 µM | 105 | 99.9 | 102
HPLM + 10% dialyzed FBS, 0.00234 µM | 102 | 107 | 108
HPLM + 10% dialyzed FBS, 0.00702 µM | 117 | 99.6 | 110
HPLM + 10% dialyzed FBS, 0.0211 µM | 104 | 104 | 115
HPLM + 10% dialyzed FBS, 0.0632 µM | 99.3 | 110 | 100
HPLM + 10% dialyzed FBS, 0.19 µM | 118 | 103 | 108
HPLM + 10% dialyzed FBS, 0.569 µM | 98.8 | 110 | 98.9
HPLM + 10% dialyzed FBS, 1.71 µM | 121 | 105 | 99.4
HPLM + 10% dialyzed FBS, 5.12 µM | 96.2 | 95.3 | 106
HPLM + 10% dialyzed FBS, 15.4 µM | 98.4 | 94.2 | 99.4
HPLM + 10% dialyzed FBS, 46.1 µM | 87.7 | 100 | 86.7
RPMI 5 mM glucose + 10% FBS, 0.000781 µM | 85.8 | 100 | 101
RPMI 5 mM glucose + 10% FBS, 0.00234 µM | 104 | 99.2 | 99.3
RPMI 5 mM glucose + 10% FBS, 0.00702 µM | 107 | 107 | 101
RPMI 5 mM glucose + 10% FBS, 0.0211 µM | 88.1 | 96.4 | 101
RPMI 5 mM glucose + 10% FBS, 0.0632 µM | 92.1 | 108 | 120
RPMI 5 mM glucose + 10% FBS, 0.19 µM | 88 | 104 | 128
RPMI 5 mM glucose + 10% FBS, 0.569 µM | 97.2 | 99.1 | 111
RPMI 5 mM glucose + 10% FBS, 1.71 µM | 85.3 | 103 | 102
RPMI 5 mM glucose + 10% FBS, 5.12 µM | 90.4 | 102 | 112
RPMI 5 mM glucose + 10% FBS, 15.4 µM | 85.9 | 90.6 | 120
RPMI 5 mM glucose + 10% FBS, 46.1 µM | 82.5 | 86.6 | 86.5
RPMI 5 mM glucose + 10% dialyzed FBS, 0.000781 µM | 90.5 | 91.5 | 92.7
RPMI 5 mM glucose + 10% dialyzed FBS, 0.00234 µM | 99 | 92.2 | 106
RPMI 5 mM glucose + 10% dialyzed FBS, 0.00702 µM | 109 | 88.8 | 114
RPMI 5 mM glucose + 10% dialyzed FBS, 0.0211 µM | 96.9 | 97.7 | 117
RPMI 5 mM glucose + 10% dialyzed FBS, 0.0632 µM | 110 | 99.8 | 112
RPMI 5 mM glucose + 10% dialyzed FBS, 0.19 µM | 94.6 | 97.1 | 106
RPMI 5 mM glucose + 10% dialyzed FBS, 0.569 µM | 92.1 | 96.4 | 106
RPMI 5 mM glucose + 10% dialyzed FBS, 1.71 µM | 92 | 90.8 | 106
RPMI 5 mM glucose + 10% dialyzed FBS, 5.12 µM | 95.7 | 97 | 123
RPMI 5 mM glucose + 10% dialyzed FBS, 15.4 µM | 90.3 | 94 | 103
RPMI 5 mM glucose + 10% dialyzed FBS, 46.1 µM | 87.4 | 84.8 | 103

CC(C)(C)NC(=O)[C@@H]1CN(Cc2cccnc2)CCN1C[C@@H](O)C[C@@H](Cc1ccccc1)C(=O)N[C@H]1c2ccccc2C[C@H]1O.O=S(=O)(O)O
AUC of viability dose-response curve
Conditions | NOMO1 [3] | P12-Ichikawa [2] | SEM cells [1]
HPLM + 10% dialyzed FBS | 472 | 463 | 439
RPMI 5 mM glucose + 10% FBS | 461 | 463 | 455
RPMI 5 mM glucose + 10% dialyzed FBS | 442 | 455 | 454

cell viability [%]
Conditions | NOMO1 [6] | P12-Ichikawa [5] | SEM cells [4]
HPLM + 10% dialyzed FBS, 0.000781 µM | 103 | 102 | 73.5
HPLM + 10% dialyzed FBS, 0.00234 µM | 122 | 114 | 89.2
HPLM + 10% dialyzed FBS, 0.00702 µM | 111 | 115 | 93.5
HPLM + 10% dialyzed FBS, 0.0211 µM | 108 | 120 | 100
HPLM + 10% dialyzed FBS, 0.0632 µM | 117 | 122 | 94.1
HPLM + 10% dialyzed FBS, 0.19 µM | 105 | 115 | 96.5
HPLM + 10% dialyzed FBS, 0.569 µM | 106 | 121 | 104
HPLM + 10% dialyzed FBS, 1.71 µM | 127 | 114 | 90.9
HPLM + 10% dialyzed FBS, 5.12 µM | 122 | 112 | 93.3
HPLM + 10% dialyzed FBS, 15.4 µM | 130 | 104 | 90.3
HPLM + 10% dialyzed FBS, 46.1 µM | 90.9 | 72.6 | 78.7
RPMI 5 mM glucose + 10% FBS, 0.000781 µM | 112 | 92.1 | 109
RPMI 5 mM glucose + 10% FBS, 0.00234 µM | 112 | 103 | 99.5
RPMI 5 mM glucose + 10% FBS, 0.00702 µM | 128 | 99.2 | 104
RPMI 5 mM glucose + 10% FBS, 0.0211 µM | 128 | 111 | 114
RPMI 5 mM glucose + 10% FBS, 0.0632 µM | 120 | 116 | 107
RPMI 5 mM glucose + 10% FBS, 0.19 µM | 119 | 116 | 108
RPMI 5 mM glucose + 10% FBS, 0.569 µM | 132 | 116 | 112
RPMI 5 mM glucose + 10% FBS, 1.71 µM | 136 | 117 | 122
RPMI 5 mM glucose + 10% FBS, 5.12 µM | 133 | 109 | 95.6
RPMI 5 mM glucose + 10% FBS, 15.4 µM | 130 | 98 | 92.1
RPMI 5 mM glucose + 10% FBS, 46.1 µM | 107 | 66.1 | 54.5
RPMI 5 mM glucose + 10% dialyzed FBS, 0.000781 µM | 99.5 | 105 | 102
RPMI 5 mM glucose + 10% dialyzed FBS, 0.00234 µM | 117 | 117 | 102
RPMI 5 mM glucose + 10% dialyzed FBS, 0.00702 µM | 123 | 119 | 109
RPMI 5 mM glucose + 10% dialyzed FBS, 0.0211 µM | 116 | 123 | 119
RPMI 5 mM glucose + 10% dialyzed FBS, 0.0632 µM | 120 | 123 | 94.9
RPMI 5 mM glucose + 10% dialyzed FBS, 0.19 µM | 119 | 119 | 118
RPMI 5 mM glucose + 10% dialyzed FBS, 0.569 µM | 125 | 121 | 122
RPMI 5 mM glucose + 10% dialyzed FBS, 1.71 µM | 155 | 126 | 112
RPMI 5 mM glucose + 10% dialyzed FBS, 5.12 µM | 145 | 111 | 96.9
RPMI 5 mM glucose + 10% dialyzed FBS, 15.4 µM | 136 | 99.4 | 90.4
RPMI 5 mM glucose + 10% dialyzed FBS, 46.1 µM | 98 | 59.2 | 62.8
